Here are results for two compounds from publication PMC8208785, “Therapeutic efficacy of novel memantine nitrate MN‐08 in animal models of Alzheimer’s disease” (Aging Cell, 2021).

Data set [1] deals with NMDA receptors (NMDA‐activated current in rat hippocampal neurons). In words: whole-cell patch-clamp recording of NMDA-activated current in primary hippocampal neurons. Format: cell-based. On the technique in general: The patch-clamp technique gives a direct electrical read-out from membranes.
The test system of data set [2] is 3×Tg‐AD mice. Description: behavioral tests (SDA, NOR, MWM), treatment study in 3×Tg-AD mice. The settings on record: 3, 6, and 12 mg/kg, vs vehicle. The class given is in vivo. How it is done: (§1) Triple transgenic 3×Tg‐AD mice were acquired from Jackson Laboratory and fostered in the Shenzhen Center for Disease Control and Prevention (Shenzhen, China). Eight‐month‐old 3×Tg‐AD mice were categorized into six groups: (1) 3×Tg‐AD +Vehicle group; (2) 3×Tg‐AD +MN‐08 (3 mg/kg) group; (3) 3×Tg‐AD +MN‐08 (6 mg/kg) group; (4) 3×Tg‐AD +MN‐08 (12 mg/kg) group; (5) 3×Tg‐AD +Memantine (Mem, 5 mg/kg) group; (6) 3×Tg‐AD +Donepezil (Done, 1.3 mg/kg, once daily) group; (7) Eight‐month‐old B6129SF2/J mice as a control group. MN‐08 and memantine were given twice daily (Done, once daily) by gastric gavage for 4 months from 8 months of age.
The step-down avoidance (SDA) test was performed as previously described (Zhou et al., 2019). During the training phase, mice were singly placed on a metal floor with electrical stimulation (35 V) for 5 min. After 24 hours, the mouse was positioned on a wooden platform, while the metal floor at the bottom delivered an electrical shock (35 V) for another 5 min. The time for the animal to step down from the wooden platform were recorded as the step-down latency to evaluate retention memory.
Hippocampus-dependent spatial memory was determined by the Morris water maze (MWM) test according to the protocol described in a previous study (Jiao et al., 2015). The MWM test includes a platform training phase and a probe trial phase. An escape platform was placed in a fixed spatial location. During the training phase, each animal was placed at one of four different starting positions and tested four times a day with an interval of approximately 30 min. The animal in the water was immediately removed when it swam to the escape platform within 60 s. […] After the training phase, the probe trial was performed on the sixth day when the platform was removed. The animal was placed in the same starting position in the pool and allowed to move freely for 2 min. The animal swimming track was recorded and analyzed with a digital camera.
The novel object recognition test was performed to assess non-spatial working memory according to previously published protocols (Choi et al., 2011). Firstly, each animal was sequentially placed into a square box (50 × 50 × 50 cm, length × width × height) without any objects for 10 min per day for 2 continuous days to habituate to the environment. Then, two identical objects were placed parallel near one wall of the square box. Animals were placed singly in the box and allowed to explore the objects for 10 min. […] The time each animal took to examine the familiar object and novel object was recorded by digital camera. The discrimination index was calculated according to the following expression: (novel object (s) - familiar object (s))/ (novel object (s) + familiar object (s)). […]

In data set [3] the test system is 3×Tg‐AD mice. In words: Aβ ELISA and Western blotting of APP-processing proteins in 3×Tg-AD mice. Format: in vivo. How it is done: as §1
To evaluate the concentration of soluble and insoluble Aβ in AD mice, the hippocampus and cortex were homogenized in the lysate, which was then centrifuged at 12000 g for 30 min at 4°C. Supernatant samples were collected as soluble Aβ. Sediment of the cortex and hippocampus was resuspended with formic acid, incubated on ice for 60 min and then centrifuged at 12,000 g for 30 min at 4°C. The supernatant and Tris/NaH2PO4 buffer were mixed as insoluble Aβ. The concentration of Aβ was analyzed by ELISA kit of human amyloid β (R&D Systems, Minneapolis, MN, USA) following the manufacturer’s instructions.
Western blotting analysis was performed as previously described with minor modifications (Huang, Li, & Nan, 2017). Proteins were extracted from hippocampal tissue and their concentrations determined by the BCA protein assay kit (Fdbio science, Hangzhou, China). The protein (20 μg) was separated on a 12% SDS-PAGE gel and then transferred to PVDF membranes. The membranes were blocked using 5 % nonfat dry milk for 2 h. The protein blots were incubated with the corresponding primary antibodies against p-Akt (#4060, 1:1000, Cell Signaling Technology), Akt (#4685, 1:1000, Cell Signaling Technology), BACE1 (#5606, 1:1000, Cell Signaling Technology), PS1 (#5643, 1:1000, Cell Signaling Technology), p-GSK3β (#5558, 1:1000, Cell Signaling Technology), GSK3β (#12456, 1:1000, Cell Signaling Technology), Bcl-2 (#3498, 1:1000, Cell Signaling Technology), Bax (#5023, 1:1000, Cell Signaling Technology), Cleaved caspase-3 (#9661, 1:1000, Cell Signaling Technology), Caspase-3 (#9662, 1:1000, Cell Signaling Technology), ADAM10 (#14194, 1:1000, Cell Signaling Technology), APP (#ab241592, 1:1000, Abcam), sAPPα (#ab126723, 1:1000, Abcam), NEP (#ab216341, 1:1000, Abcam), Synapsin I (#ab64581, 1:1000, Abcam), Synapsin II (#ab76494, 1:1000, Abcam), NR2A (#ab124913, 1:2000, Abcam), PSD95 (#ab18258, 1:1000, Abcam), Synaptophysin (#ab32127, 1:1000, Abcam), IDE (#ab133561, 1:1000, Abcam), Drebin (#ab178408, 1:1000, Abcam) and Tau-5 (#ab80579, 1:2000, Abcam) overnight at 4°C. After washing 3 times, the membranes were incubated with the respective HRP-conjugated secondary antibody. ECL Western blotting Detection Reagents (Fdbio science, Hangzhou, China) were used to perform Chemiluminescence detection. Quantitative analysis of protein bands was conducted by the Carestream system (Carestream Health, Inc, USA).
A general note: In an ELISA, binding on a coated surface is turned into a signal by an enzyme label.

Another data set deals with normal rats. Further details: method as in Luo et al., 2019. The settings on record: ref Luo et al., 2019; cited from earlier work.
In another data set the test system is intact narcotized rats. Set-up: method as in Mirzoyan et al., 2014. The settings on record: intact narcotized rats and animals with global transient ischemia; ref Mirzoyan et al., 2014; cited from earlier work.
Setting [4] is: MN‐08 6 mg/kg, hippocampi, Western blot.

A word on the IC50: it is the concentration at which inhibition is half-maximal.

With `CCC12CC3CC(N)(C1)CC(CO[N+](=O)[O-])(C3)C2` (stereo not drawn) [MN‐08], the “IC50 on NMDA‐mediated current compared with memantine” value in data set [1] is recorded as “slightly high than memantine”. The “NMDA‐activated current” value in data set [1] (MN‐08 1–30 µM, whole‐cell patch‐clamp) is on record as “inhibited”. Moreover, the “NMDA‐activated current after washout of the compound (off‐rate)” value in data set [1] (NMDA 30 µM, −50 mV) is reported as “recovered rapidly”. Besides, in data set [1] (holding potential −50 mV, NMDA 30 μM, rat hippocampal neurons, read-out: IC50 on the inhibition of NMDA‐mediated current), the IC50 is 7.32 ± 0.23 µM. For the same compound, in the data set with 3×Tg‐AD mice [2] (4 months from 8 months of age), the “step‐down latency” value is “significant increase”. In the data set on 3×Tg‐AD mice [2] (4 months), the “discrimination index (NOR)” value is “significant increase”, the “escape latency time (MWM)” value is reported as “significant reduction” and the “number of crossings (MWM)” value was “significant increase”. For the same compound, in the data set with 3×Tg‐AD mice [3] (MN‐08 6 mg/kg, hippocampal and cortical areas), the “Aβ accumulation (ELISA)” value is recorded as “significant reduction”. Further, in the data set on 3×Tg‐AD mice [3] (setting [4]), the “expression of total APP” value is reported as “significantly decreased”; the “expression of α‐secretase (ADAM10) and neprilysin (NEP)” value is “enhanced”; the “levels of sAPPα” value was “increasing”. The “expression of IDE, PS1, or BACE1” value in the data set with 3×Tg‐AD mice [3] (hippocampi, Western blot) is listed as “no effect”. Further, the blood pressure result in the data set with normal rats is recorded as “does not, however, change”.
As for `CC12CC3CC(C)(C1)CC(N)(C3)C2` [memantine, 1‐amino‐3,5‐dimethyladamantane], the “local cerebral blood flow (CBF) in the brain cortices” value in the data set on intact narcotized rats is recorded as “reduce”.
